Experimental findings from patent US20100311714A1, “1H-IMIDAZO[4,5-c]QUINOLINONE COMPOUNDS” (priority 2009, published 2010) are described below.

The target of this assay is T1, PI3K beta (Homo sapiens, UniProt P42338).
T1 construct: for the full-length p110-b subunit are generated and fused by overlapping PCR; His tag (C); made in house; host or cells: baculovirus BV949; Tn5 (Trichoplusia ni) or TiniPro insect cells
T1 sequence (P42338 with tags, fused parts or gaps limits assumed): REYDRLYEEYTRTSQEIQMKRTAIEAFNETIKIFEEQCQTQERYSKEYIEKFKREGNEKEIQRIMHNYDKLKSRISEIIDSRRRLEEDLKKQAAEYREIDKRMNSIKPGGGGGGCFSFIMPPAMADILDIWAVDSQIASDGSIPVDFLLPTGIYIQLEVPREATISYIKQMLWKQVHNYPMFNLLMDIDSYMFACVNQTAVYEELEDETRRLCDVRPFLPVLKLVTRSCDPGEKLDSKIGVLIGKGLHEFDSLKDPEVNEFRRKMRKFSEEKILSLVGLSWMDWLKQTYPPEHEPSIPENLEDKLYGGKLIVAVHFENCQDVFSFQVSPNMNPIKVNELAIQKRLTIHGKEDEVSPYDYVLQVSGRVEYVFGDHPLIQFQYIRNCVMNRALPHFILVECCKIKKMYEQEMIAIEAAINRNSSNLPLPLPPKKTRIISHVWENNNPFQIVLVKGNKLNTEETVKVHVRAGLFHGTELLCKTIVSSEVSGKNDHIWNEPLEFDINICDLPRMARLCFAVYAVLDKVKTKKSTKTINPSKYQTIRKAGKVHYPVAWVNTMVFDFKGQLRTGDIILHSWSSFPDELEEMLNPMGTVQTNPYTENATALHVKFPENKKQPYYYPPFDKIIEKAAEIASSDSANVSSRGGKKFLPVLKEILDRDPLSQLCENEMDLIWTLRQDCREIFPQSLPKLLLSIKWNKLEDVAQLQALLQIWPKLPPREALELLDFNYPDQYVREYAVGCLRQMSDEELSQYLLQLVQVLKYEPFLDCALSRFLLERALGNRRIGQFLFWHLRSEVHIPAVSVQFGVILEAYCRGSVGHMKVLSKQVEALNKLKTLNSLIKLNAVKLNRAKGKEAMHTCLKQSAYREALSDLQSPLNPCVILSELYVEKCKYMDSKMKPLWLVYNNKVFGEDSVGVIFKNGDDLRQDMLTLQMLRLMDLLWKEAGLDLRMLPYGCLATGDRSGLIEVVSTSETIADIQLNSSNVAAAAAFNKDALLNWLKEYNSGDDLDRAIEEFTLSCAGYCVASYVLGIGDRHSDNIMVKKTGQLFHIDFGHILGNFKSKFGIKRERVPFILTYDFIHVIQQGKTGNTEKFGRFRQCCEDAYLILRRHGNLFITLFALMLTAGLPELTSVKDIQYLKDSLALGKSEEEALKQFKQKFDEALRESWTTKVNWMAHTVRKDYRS
The assay is described as follows: PI3K beta kinase assay (Kinase-Glo luminescence). As to conditions: read-out: EPK_PI3Kbeta/IC50. The class given is biochemical. In a few lines:
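PI3Kβ construct BV949 (p85 iSH2–p110β full-length, C-His), 25 nM, reacted with 1 μM ATP and 10 μg/mL phosphatidylinositol in Tris pH 7.5, MgCl2, NaCl, CHAPS, DTT buffer, 60 min at room temperature. Remaining ATP by Kinase-Glo luminescence; IC50 from 4-parameter logistic fit of 8 concentrations.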
In the case of `CCNc1cc(-c2ccc3ncc4c(c3c2)n(-c2ccc(OCCOC)nc2C)c(=O)n4C)cnc1C` [Example 13.4, 8-(5-Ethylamino-6-methyl-pyridin-3-yl)-1-[6-(2-methoxy-ethoxy)-2-methyl-pyridin-3-yl]-3-methyl-1,3-dihydro-imidazo[4,5-c]quinolin-2-one], the IC50 was 62 nM. In the case of `CNc1ncc(-c2ccc3ncc4c(c3c2)n(-c2ccc(OCCOC)nc2C)c(=O)n4C)cn1` [Example 13.5, 1-[6-(2-Methoxy-ethoxy)-2-methyl-pyridin-3-yl]-3-methyl-8-(2-methylamino-pyrimidin-5-yl)-1,3-dihydro-imidazo[4,5-c]quinolin-2-one] it was 658 nM. In the case of `CCOc1ccc(-c2ccc3ncc4c(c3c2)n(-c2ccc(C)nc2C)c(=O)n4C)cn1` [Example 14.2, 1-(2,6-Dimethyl-pyridin-3-yl)-8-(6-ethoxy-pyridin-3-yl)-3-methyl-1,3-dihydro-imidazo[4,5-c]quinolin-2-one] it was 358 nM. In the case of `Cc1ccc(-n2c(=O)n(C)c3cnc4ccc(-c5cnc(N(C)C)nc5)cc4c32)c(C)n1` [Example 14.3, 8-(2-Dimethylamino-pyrimidin-5-yl)-1-(2,6-dimethyl-pyridin-3-yl)-3-methyl-1,3-dihydro-imidazo[4,5-c]quinolin-2-one] it was 396 nM; in that of `CNc1ncc(-c2ccc3ncc4c(c3c2)n(-c2ccc(C)nc2C)c(=O)n4C)cn1` [Example 14.4, 1-(2,6-Dimethyl-pyridin-3-yl)-3-methyl-8-(2-methylamino-pyrimidin-5-yl)-1,3-dihydro-imidazo[4,5-c]quinolin-2-one], 282 nM. With `Cc1ccc(-n2c(=O)n(C)c3cnc4ccc(-c5cnc(N)c(C(F)(F)F)c5)cc4c32)c(C)n1` [Example 14.5, 8-(6-Amino-5-trifluoromethyl-pyridin-3-yl)-1-(2,6-dimethyl-pyridin-3-yl)-3-methyl-1,3-dihydro-imidazo[4,5-c]quinolin-2-one], the IC50 came out at 9 nM. In the case of `CCNc1cc(-c2ccc3ncc4c(c3c2)n(-c2ccc(C)nc2C)c(=O)n4C)cnc1C` [Example 14.6, 1-(2,6-Dimethyl-pyridin-3-yl)-8-(5-ethylamino-6-methyl-pyridin-3-yl)-3-methyl-1,3-dihydro-imidazo[4,5-c]quinolin-2-one] it was 50 nM; in that of `Cc1ccc(-n2c(=O)n(C)c3cnc4ccc(-c5cnc6c(ccn6C)c5)cc4c32)c(C)n1` [Example 14.7, 1-(2,6-Dimethyl-pyridin-3-yl)-3-methyl-8-(1-methyl-1H-pyrrolo[2,3-b]pyridin-5-yl)-1,3-dihydro-imidazo[4,5-c]quinolin-2-one], 1100 nM; in that of `Cc1ccc(-n2c(=O)n(C)c3cnc4ccc(-c5cncc(NC(C)C)c5)cc4c32)c(C)n1` [Example 14.8, 1-(2,6-Dimethyl-pyridin-3-yl)-8-(5-isopropylamino-pyridin-3-yl)-3-methyl-1,3-dihydro-imidazo[4,5-c]quinolin-2-one], 53 nM. In the case of `COCCN(C)c1ccc(-n2c(=O)n(C)c3cnc4ccc(-c5cnc(N)c(C(F)(F)F)c5)cc4c32)c(C)n1` [Example 15.1, 8-(6-Amino-5-trifluoromethyl-pyridin-3-yl)-1-{6-[(2-methoxy-ethyl)-methyl-amino]-2-methyl-pyridin-3-yl}-3-methyl-1,3-dihydro-imidazo[4,5-c]quinolin-2-one] it was 15 nM. In the case of `CNc1ncc(-c2ccc3ncc4c(c3c2)n(-c2ccc(N(C)CCOC)nc2C)c(=O)n4C)cn1` [Example 15.2, 1-{6-[(2-Methoxy-ethyl)-methyl-amino]-2-methyl-pyridin-3-yl}-3-methyl-8-(2-methylamino-pyrimidin-5-yl)-1,3-dihydro-imidazo[4,5-c]quinolin-2-one] it was 541 nM. `CCOc1ccc(-c2ccc3ncc4c(c3c2)n(-c2ccc(N(C)CCOC)nc2C)c(=O)n4C)cn1` [Example 15.3, 8-(6-Ethoxy-pyridin-3-yl)-1-{6-[(2-methoxy-ethyl)-methyl-amino]-2-methyl-pyridin-3-yl}-3-methyl-1,3-dihydro-imidazo[4,5-c]quinolin-2-one]: the IC50 was 793 nM. In the case of `CNc1ccc(-c2ccc3ncc4c(c3c2)n(-c2ccc(N(C)CCOC)nc2C)c(=O)n4C)cn1` [Example 15.4, 1-{6-[(2-Methoxy-ethyl)-methyl-amino]-2-methyl-pyridin-3-yl}-3-methyl-8-(6-methylamino-pyridin-3-yl)-1,3-dihydro-imidazo[4,5-c]quinolin-2-one], the IC50 amounted to 407 nM. In the case of `COCCN(C)c1ccc(-n2c(=O)n(C)c3cnc4ccc(-c5cnc(N(C)C)nc5)cc4c32)c(C)n1` [Example 15.5, 8-(2-Dimethylamino-pyrimidin-5-yl)-1-{6-[(2-methoxy-ethyl)-methyl-amino]-2-methyl-pyridin-3-yl}-3-methyl-1,3-dihydro-imidazo[4,5-c]quinolin-2-one] it was 448 nM; in that of `CCNc1cc(-c2ccc3ncc4c(c3c2)n(-c2ccc(N(C)CCOC)nc2C)c(=O)n4C)cnc1C` [Example 15.6, 8-(5-Ethylamino-6-methyl-pyridin-3-yl)-1-{6-[(2-methoxy-ethyl)-methyl-amino]-2-methyl-pyridin-3-yl}-3-methyl-1,3-dihydro-imidazo[4,5-c]quinolin-2-one], 28 nM. In the case of `COCCN(C)c1ccc(-n2c(=O)n(C)c3cnc4ccc(-c5cnc6c(ccn6C)c5)cc4c32)c(C)n1` [Example 15.7, 1-{6-[(2-Methoxy-ethyl)-methyl-amino]-2-methyl-pyridin-3-yl}-3-methyl-8-(1-methyl-1H-pyrrolo[2,3-b]pyridin-5-yl)-1,3-dihydro-imidazo[4,5-c]quinolin-2-one] it was 279 nM; in that of `COCCN(C)c1ccc(-n2c(=O)n(C)c3cnc4ccc(-c5cncc(N)c5)cc4c32)c(C)n1` [Example 15.8, 8-(5-Amino-pyridin-3-yl)-1-{6-[(2-methoxy-ethyl)-methyl-amino]-2-methyl-pyridin-3-yl}-3-methyl-1,3-dihydro-imidazo[4,5-c]quinolin-2-one], 98 nM.

With `COCCN(C)c1ccc(-n2c(=O)n(C)c3cnc4ccc(-c5cnc(CO)c(OC)c5)cc4c32)c(C)n1` [Example 15.9, 8-(6-Hydroxymethyl-5-methoxy-pyridin-3-yl)-1-{6-[(2-methoxy-ethyl)-methyl-amino]-2-methyl-pyridin-3-yl}-3-methyl-1,3-dihydro-imidazo[4,5-c]quinolin-2-one], the IC50 was 15 nM. In the case of `Cc1cc(F)ncc1-n1c(=O)n(C)c2cnc3ccc(-c4cnc(N)c(C(F)(F)F)c4)cc3c21` [Example 16.1, 8-(6-Amino-5-trifluoromethyl-pyridin-3-yl)-1-(6-fluoro-4-methyl-pyridin-3-yl)-3-methyl-1,3-dihydro-imidazo[4,5-c]quinolin-2-one] it was 47 nM; in that of `CCNc1cc(-c2ccc3ncc4c(c3c2)n(-c2cnc(F)cc2C)c(=O)n4C)cnc1C` [Example 16.2, 8-(5-Ethylamino-6-methyl-pyridin-3-yl)-1-(6-fluoro-4-methyl-pyridin-3-yl)-3-methyl-1,3-dihydro-imidazo[4,5-c]quinolin-2-one], 150 nM; in that of `CNc1ncc(-c2ccc3ncc4c(c3c2)n(-c2cnc(F)cc2C)c(=O)n4C)cn1` [Example 16.3, 1-(6-Fluoro-4-methyl-pyridin-3-yl)-3-methyl-8-(2-methylamino-pyrimidin-5-yl)-1,3-dihydro-imidazo[4,5-c]quinolin-2-one], 1180 nM. In the case of `CNc1ccc(-c2ccc3ncc4c(c3c2)n(-c2cnc(F)cc2C)c(=O)n4C)cn1` [Example 16.4, 1-(6-Fluoro-4-methyl-pyridin-3-yl)-3-methyl-8-(6-methylamino-pyridin-3-yl)-1,3-dihydro-imidazo[4,5-c]quinolin-2-one] it was 1330 nM. In the case of `Cc1cc(F)ncc1-n1c(=O)n(C)c2cnc3ccc(-c4cnc5c(ccn5C)c4)cc3c21` [Example 16.5, 1-(6-Fluoro-4-methyl-pyridin-3-yl)-3-methyl-8-(1-methyl-1H-pyrrolo[2,3-b]pyridin-5-yl)-1,3-dihydro-imidazo[4,5-c]quinolin-2-one] it was 261 nM; in that of `CCOc1ccc(-c2ccc3ncc4c(c3c2)n(-c2cncc(C)c2)c(=O)n4C)cn1` [Example 17.1, 8-(6-Ethoxy-pyridin-3-yl)-3-methyl-1-(5-methyl-pyridin-3-yl)-1,3-dihydro-imidazo[4,5-c]quinolin-2-one], 3950 nM; in that of `CCNc1cc(-c2ccc3ncc4c(c3c2)n(-c2ccc(OC)nc2Cl)c(=O)n4C)cnc1C` [Example 18.1, 1-(2-Chloro-6-methoxy-pyridin-3-yl)-8-(5-ethylamino-6-methyl-pyridin-3-yl)-3-methyl-1,3-dihydro-imidazo[4,5-c]quinolin-2-one], 41 nM. With `COc1ccc(-n2c(=O)n(C)c3cnc4ccc(-c5cnc(N(C)C)nc5)cc4c32)c(Cl)n1` [Example 18.3, 1-(2-Chloro-6-methoxy-pyridin-3-yl)-8-(2-dimethylamino-pyrimidin-5-yl)-3-methyl-1,3-dihydro-imidazo[4,5-c]quinolin-2-one], the IC50 turned out to be 45 nM. In the case of `CNc1ncc(-c2ccc3ncc4c(c3c2)n(-c2ccc(N(C)C)nc2C)c(=O)n4C)cn1` [Example 19.1, 1-(6-Dimethylamino-2-methyl-pyridin-3-yl)-3-methyl-8-(2-methylamino-pyrimidin-5-yl)-1,3-dihydro-imidazo[4,5-c]quinolin-2-one] it was 99 nM. In the case of `CNc1cc(-c2ccc3ncc4c(c3c2)n(-c2ccc(N(C)C)nc2C)c(=O)n4C)cnc1C` [Example 19.2, 1-(6-Dimethylamino-2-methyl-pyridin-3-yl)-3-methyl-8-(6-methyl-5-methylamino-pyridin-3-yl)-1,3-dihydro-imidazo[4,5-c]quinolin-2-one] it was 68 nM.
